Laboratory results as given in publication PMC4749168, “Potentiation of ΔF508- and G551D-CFTR-Mediated Cl^- Current by Novel Hydroxypyrazolines” (PLoS ONE, 2016).
pEC50: −log10 of the molar value. Where “and” joins values, the source holds several entries; their conditions need not be identical. Identical values can stand only once. Entries after “also recorded” stand apart in the source; their conditions may differ.

Assays:
WT-CFTR = target: T1, WT-CFTR (Homo sapiens, UniProt P13569); assay: Halide-sensitive YFP microplate reader assay of CFTR potentiation, WT-CFTR; type: cell-based; conditions: FRT cells, 0.1 μM forskolin
T1 construct: expressed in transfected cells; host or cells: Fisher rat thyroid (FRT) cells, co-expressing halide sensor YFP-H148Q/I152L; provided by Dr. Alan Verkman
Experimental: (§1) FRT cells expressing wild type- or ΔF508-CFTR with the halide sensor YFP-H148Q/I152L were plated in 96-well black-walled microplates (Corning Inc., Corning, NY) at a density of 2 x10^4cells per well. FRT-WT-CFTR-YFP cells were incubated for 48 h at 37°C, and FRT-ΔF508-CFTR-YFP cells were incubated for 24 h at 27°C after 24 h incubation at 37°C to rescue ΔF508-CFTR localization. Assays were done using FLUO star Omega microplate reader (BMG Labtech, Ortenberg, Germany) and MARS Data Analysis Software (BMG Labtech). Each well of a 96-well plate was washed 3 times in PBS (200 μL/wash). 100 μL PBS was added to each well. Forskolin (0.1 and 10 μM for WT- and ΔF508-CFTR, respectively) and test compounds (1 μL) were added to each well. After 10 min, 96-well plates were transferred to the microplate reader preheated to 37°C for fluorescence assay. Each well was assayed individually for CFTR-mediated I^- influx by recording fluorescence continuously (200 ms per point) for 2 s (baseline), then 100 μL of 140 mM I^- solution was added at 2 s and then YFP fluorescence was recorded for 14 s. Initial iodide influx rate was determined from the initial slope of fluorescence decrease, by nonlinear regression, following infusion of iodide.

intracellular cAMP = assay: Cyclic AMP assay in FRT cells; type: cell-based, rat; conditions: 10 μM CP7q
Experimental: FRT cells grown on 12 well culture plates were washed 3 times with PBS at 37°C and then incubated in PBS at 37°C containing 100 μM IBMX for […] in the absence or presence of forskolin or CP7q. After 10 min incubation, the cells were washed with cold PBS and cytosolic cAMP was measured using a cAMP immunoassay kit (Parameter TM cAMP immunoassay kit, R&D Systems) according to the manufacturer's protocol.

HT-29 cells = assay: MTS cell viability assay; type: cell-based, human; conditions: 24 h, up to 10 μM
Experimental: HT-29 human colon adenocarcinoma cells were plated at a density of 1 x10^4 per cm^2on 96-well microplates. After 24 h incubation, cells were treated with hydroxypyrazolines and then incubated for 1 day. An equal amount of DMSO was added to the all control. The culture medium and the compounds were changed every 12 h. For MTS assay, the cells were reincubated with MTS for 1 hour. The soluble formazan produced by cellular reduction of MTS was quantified by measuring the absorbance at 490 nm with Infinite M200 (Tecan, Grödig, Austria) microplate reader. MTS assay was done using CellTiter 96® AQueous One Solution Cell Proliferation Assay kit (Promega, Madison, WI, USA).

CFTR = target: T2, CFTR (Homo sapiens, UniProt P13569); assay: Short-circuit current in primary cultures of normal human nasal epithelial cells; type: cell-based; conditions: 0.5 μM forskolin, amiloride pretreatment
T2 construct: endogenous in cells; host or cells: primary cultures of normal human nasal epithelial cells (provided by Dr. Jaeyoung Choi), passage 2, air-liquid interface
Experimental: (§2) Snapwell inserts containing CFTR-expressing FRT and primary culture of human nasal epithelial cells were mounted in Ussing chambers (Physiologic Instruments, San Diego, CA). Forskolin, genistein, CP7q and CFTRinh-172 were added to the apical and basolateral bath solution. For FRT cells, the apical bath was filled with a half-Cl^- solution and the basolateral bath was filled with HCO3^—buffered solution, and the basolateral membrane was permeabilized with 250 μg/mL amphotericin B. For primary cultures of human nasal epithelial cells, symmetrical HCO3^—buffered solutions were used and ENaC was inhibited by pre-treatment with amiloride (100 μM). All cells were bathed for a 20 min stabilization period and aerated with 95% O2 / 5% CO2 at 37°C. Apical membrane current and short-circuit current were measured with an EVC4000 Multi-Channel V/I Clamp (World Precision Instruments, Sarasota, FL) and recorded using PowerLab 4/35 (AD Instruments, Castle Hill, Australia). Data were collected and analyzed with ADInstruments acquisition software Labchart Pro 7 software. The sampling rate was 4 Hz.

ΔF508-CFTR [1] = target: T3, ΔF508-CFTR (Homo sapiens, UniProt P13569, DEL508-508); assay: Halide-sensitive YFP microplate reader assay of CFTR potentiation, ΔF508-CFTR; type: cell-based; design: expressed in transfected cells; host or cells: Fisher rat thyroid (FRT) cells, co-expressing halide sensor YFP-H148Q/I152L; provided by Dr. Alan Verkman; conditions: FRT cells rescued at 27°C, 10 μM forskolin
Experimental: as §1

ΔF508-CFTR [2] = target: T3, ΔF508-CFTR; assay: Apical membrane current (Ussing chamber) in FRT cells expressing low temperature-rescued ΔF508-CFTR; type: cell-based; design: expressed in transfected cells; host or cells: Fisher rat thyroid (FRT) cells, co-expressing halide sensor YFP-H148Q/I152L; provided by Dr. Alan Verkman; conditions: 20 μM forskolin
Experimental: as §2

ΔF508-CFTR [3] = target: T3, ΔF508-CFTR; assay: Whole-cell patch-clamp in FRT cells expressing ΔF508-CFTR; type: cell-based; design: expressed in transfected cells; host or cells: Fisher rat thyroid (FRT) cells, co-expressing halide sensor YFP-H148Q/I152L; provided by Dr. Alan Verkman
Experimental: Whole-cell patch-clamp recordings were performed on WT- or ΔF508-CFTR-expressing FRT cells. The bath solution contained (in mM): 140 NMDG-Cl, 1 CaCl2, 1 MgCl2, 10 glucose and 10 HEPES (pH 7.4). The pipette solution contained (in mM): 130 CsCl, 0.5 EGTA, 1 MgCl2, 1 Tris-ATP, and 10 HEPES (pH 7.2). Pipettes were pulled from borosilicate glass and had resistances of 3–5 MΩ after fire polishing. Seal resistances were between 3 and 10 GΩ. After establishing the whole-cell configuration, CFTR was activated by forskolin and/or CP7q. Whole-cell currents were elicited by applying hyperpolarizing and depolarizing voltage pulses from a holding potential of 0 mV to potentials between -80 mV and +80 mV in steps of 20 mV. Recordings were made at room temperature using an Axopatch-200B (Axon Instruments). Currents were digitized and analyzed using a Digidata 1440A converter (Axon Instruments), and pCLAMP 10.2 software (Molecular Devices, Sunnyvale, CA). Currents were low-pass filtered at 1 kHz and sampled at 5 kHz

T3 sequence (P13569 with tags, fused parts or gaps DEL508-508): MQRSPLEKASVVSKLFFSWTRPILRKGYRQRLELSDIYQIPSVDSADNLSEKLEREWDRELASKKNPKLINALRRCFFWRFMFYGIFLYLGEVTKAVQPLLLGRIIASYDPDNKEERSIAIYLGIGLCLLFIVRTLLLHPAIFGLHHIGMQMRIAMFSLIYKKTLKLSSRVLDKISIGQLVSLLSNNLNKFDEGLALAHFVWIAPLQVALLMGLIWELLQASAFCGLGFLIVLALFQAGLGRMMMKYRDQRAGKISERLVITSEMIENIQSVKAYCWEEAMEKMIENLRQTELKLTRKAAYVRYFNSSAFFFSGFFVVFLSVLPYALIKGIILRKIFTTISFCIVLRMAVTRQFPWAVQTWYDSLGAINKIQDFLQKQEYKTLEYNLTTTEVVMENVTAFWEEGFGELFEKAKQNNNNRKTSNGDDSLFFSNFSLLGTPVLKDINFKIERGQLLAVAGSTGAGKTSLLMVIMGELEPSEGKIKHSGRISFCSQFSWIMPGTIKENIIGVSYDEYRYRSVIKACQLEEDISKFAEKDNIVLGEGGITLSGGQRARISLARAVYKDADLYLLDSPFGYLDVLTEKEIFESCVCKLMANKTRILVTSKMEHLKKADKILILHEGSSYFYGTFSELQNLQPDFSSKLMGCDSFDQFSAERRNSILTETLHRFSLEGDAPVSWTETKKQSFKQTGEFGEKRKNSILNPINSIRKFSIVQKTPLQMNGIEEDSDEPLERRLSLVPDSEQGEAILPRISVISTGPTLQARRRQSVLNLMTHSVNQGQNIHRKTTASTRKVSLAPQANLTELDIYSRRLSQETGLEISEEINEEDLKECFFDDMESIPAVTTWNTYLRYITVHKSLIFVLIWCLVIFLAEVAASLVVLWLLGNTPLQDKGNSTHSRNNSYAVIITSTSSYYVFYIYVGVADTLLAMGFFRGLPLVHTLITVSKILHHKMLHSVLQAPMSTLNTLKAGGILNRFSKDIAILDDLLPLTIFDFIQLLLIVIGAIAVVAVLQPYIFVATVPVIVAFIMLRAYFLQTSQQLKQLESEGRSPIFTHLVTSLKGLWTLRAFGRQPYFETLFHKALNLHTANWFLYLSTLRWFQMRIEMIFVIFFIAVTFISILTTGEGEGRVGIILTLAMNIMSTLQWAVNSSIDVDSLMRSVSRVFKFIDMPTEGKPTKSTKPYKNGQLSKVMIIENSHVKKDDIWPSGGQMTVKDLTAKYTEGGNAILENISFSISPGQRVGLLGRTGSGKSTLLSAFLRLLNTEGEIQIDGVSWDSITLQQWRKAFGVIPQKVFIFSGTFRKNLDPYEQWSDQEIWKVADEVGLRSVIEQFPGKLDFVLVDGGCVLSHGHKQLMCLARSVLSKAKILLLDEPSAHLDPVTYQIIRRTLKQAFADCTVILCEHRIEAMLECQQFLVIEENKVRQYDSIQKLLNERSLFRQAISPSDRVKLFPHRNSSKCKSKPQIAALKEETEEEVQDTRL
T2 sequence (P13569 whole entry): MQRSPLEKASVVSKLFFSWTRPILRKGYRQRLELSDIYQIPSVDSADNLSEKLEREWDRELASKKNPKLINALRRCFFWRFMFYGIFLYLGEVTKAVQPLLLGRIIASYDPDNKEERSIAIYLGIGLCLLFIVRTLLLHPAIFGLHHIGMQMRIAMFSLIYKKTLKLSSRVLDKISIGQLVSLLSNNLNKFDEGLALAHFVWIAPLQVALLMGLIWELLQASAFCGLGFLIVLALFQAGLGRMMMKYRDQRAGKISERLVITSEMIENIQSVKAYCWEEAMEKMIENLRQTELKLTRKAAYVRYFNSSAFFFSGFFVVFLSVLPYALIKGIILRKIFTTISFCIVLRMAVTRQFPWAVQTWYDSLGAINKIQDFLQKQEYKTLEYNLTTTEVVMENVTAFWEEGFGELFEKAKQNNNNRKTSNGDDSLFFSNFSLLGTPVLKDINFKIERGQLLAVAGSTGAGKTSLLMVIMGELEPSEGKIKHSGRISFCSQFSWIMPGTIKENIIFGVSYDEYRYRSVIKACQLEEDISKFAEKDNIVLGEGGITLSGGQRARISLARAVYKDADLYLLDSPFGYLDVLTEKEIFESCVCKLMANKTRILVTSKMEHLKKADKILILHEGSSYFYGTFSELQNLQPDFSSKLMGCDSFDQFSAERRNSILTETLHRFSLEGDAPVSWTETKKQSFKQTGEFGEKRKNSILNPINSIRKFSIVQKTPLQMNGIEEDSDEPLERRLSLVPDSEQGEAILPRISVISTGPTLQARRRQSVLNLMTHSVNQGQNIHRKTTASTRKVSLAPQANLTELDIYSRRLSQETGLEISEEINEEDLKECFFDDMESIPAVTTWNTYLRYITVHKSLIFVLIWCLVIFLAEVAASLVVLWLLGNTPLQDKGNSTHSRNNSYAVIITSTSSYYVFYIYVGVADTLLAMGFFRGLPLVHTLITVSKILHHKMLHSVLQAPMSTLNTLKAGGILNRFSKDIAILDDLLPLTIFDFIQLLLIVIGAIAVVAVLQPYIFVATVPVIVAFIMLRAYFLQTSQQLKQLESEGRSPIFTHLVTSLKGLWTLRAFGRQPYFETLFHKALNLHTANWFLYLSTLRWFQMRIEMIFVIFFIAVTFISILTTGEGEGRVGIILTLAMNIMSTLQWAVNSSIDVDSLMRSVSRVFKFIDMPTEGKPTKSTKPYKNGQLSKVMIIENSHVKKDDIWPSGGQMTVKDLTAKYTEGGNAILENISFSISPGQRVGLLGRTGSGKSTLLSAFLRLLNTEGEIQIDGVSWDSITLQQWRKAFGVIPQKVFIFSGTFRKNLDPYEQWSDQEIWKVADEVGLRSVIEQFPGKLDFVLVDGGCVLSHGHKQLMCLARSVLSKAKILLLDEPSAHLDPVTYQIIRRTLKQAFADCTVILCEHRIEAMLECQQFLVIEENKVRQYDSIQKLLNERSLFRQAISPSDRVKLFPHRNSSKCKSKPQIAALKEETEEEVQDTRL

## COc1ccc(C2CC(c3ccc(O)cc3O)=NN2c2ccc(S(N)(=O)=O)cc2)c(OC)c1 (stereo not drawn) [Compound 7q, 4-[3-(2,4-dihydroxyphenyl)-5-(2,4-dimethoxyphenyl)-4,5-dihydro-1H-pyrazol-1-yl] benzenesulfonamide]
WT-CFTR
  EC50: 0.9 µM
Intracellular cAMP
  Effect on intracellular cAMP level: did not alter; also recorded: did not affect
HT-29 cells
  Cytotoxicity (cell viability, MTS): no cytotoxicity
CFTR
  Potentiation of CFTR Cl- current (short-circuit current): remarkably potentiated
ΔF508-CFTR [1]
  EC50: 4.8 µM
ΔF508-CFTR [2]; genistein 50 μM
  Efficacy of ΔF508-CFTR potentiation compared with genistein: slightly higher than that of genistein
ΔF508-CFTR [2]; FRT cells, 27°C rescue 24 h
  pEC50: 5.35 and ~5.35
ΔF508-CFTR [3]; 10 μM forskolin, 10 μM CP7q, 27°C rescue
  Potentiation of whole-cell ΔF508-CFTR Cl- current: significantly potentiated
ΔF508-CFTR [3]; whole cell patch-clamp, no forskolin
  Activation of ΔF508-CFTR without forskolin stimulation: did not activate
